In US5827896A, “Pinitol and derivatives thereof for the treatment of metabolic disorders” (priority 1996, dated 1998):
Where “and” joins values, the source holds several entries; their conditions need not be identical. Identical values can stand only once.

Assays:
[1] = system: plasma glucose; assay: plasma glucose during oral glucose tolerance test in non-insulin-dependent Type II diabetics (Example 3); assay type: in vivo, human
Text: The material contained less than 5 calories.

[2] = clinical; settings: in vivo
Description: (§1) Five non-insulin-dependent diabetic subjects were studied on two occasions one week apart. For three days the subjects received pinitol 4.15 mg/kg/day orally in a drink once daily for 3 days. The preparation also contained 0.85 mg/kg/day D-chiro-inositol in other forms. The total inositol content by weight (including pinitol) was 22.5%. On the fourth day they took no morning dose of oral hypoglycemic agents and reported to the Clinical Research Center. Baseline blood samples were taken at -90 and -60 minutes, and at -60 minutes a dose of pinitol identical to that taken during the previous 3 days was given orally. The material contained less than 5 calories. At zero time 75 g glucose was given to begin a glucose tolerance test and blood samples were taken half-hourly for 3 hours. In random order the subjects received either myo-inositol (5 mg/kg/day) or soy pinitol (total inositol content 5 mg/kg/day). […] Plasma inositol levels were measured by gas chromatography/mass spectrometry and insulin levels were measured by RIA.

[3] = system: plasma free fatty acids; assay: fasting plasma free fatty acids in NIDDM patients, placebo-controlled crossover (Example 5); assay type: in vivo, human; settings: 5 days
Description: (§2) 10 non-insulin-dependent diabetes patients maintained a pinitol and D-chiro-inositol-deficient diet (no legumes, or citrus fruits) throughout the study. […] The following table summarizes the characteristics of the patients.
(§3) Each subject received both placebo and soy-derived pinitol in separate tests. After an initial 5-day washout period the subjects received 5 days of treatment with either pinitol 5 mg/kg BID (total dose 10 mg/kg/day) or placebo without inositols. The material was given orally in 60 ml. calorie-free KOOL-AID drink.
(§4) Twelve hours after the last dose, two fasting plasma samples were drawn from each subject 15 minutes apart. Plasma free fatty acid levels were measured. A dose of pinitol was then given and a 3-hour glucose tolerance test was performed.
(§5) After a second 5-day washout period and another 5 days of pinitol or placebo feeding the testing was repeated. The order of treatment (pinitol or lacebo) was randomized and study investigatyors and those conducting the analyses were blinded to the order of treatment given.

[4] = acid hydrolysis of pinitol to D-chiro-inositol in 6N HCl; assay type: physicochemical; settings: 24 hr at 110° in 6N HCl
Description: The highly standardized components of Purina Rodent Chow 5001 were analyzed by gas chromatography-mass spectrometry after hydrolysis in 6N HCI at 110° for 24 hr. to convert the pinitol to D-chiro-inositol and the results are presented in Table I below:
In contrast to other ether linkages it is not necessary to use concentrated hydrogen iodide to convert pinitol to D-chiro-inositol as detailed in U.S. Pat. No. 5,091,596.

[5] = system: plasma insulin; assay: plasma insulin during oral glucose tolerance test (RIA) in non-insulin-dependent Type II diabetics (Example 3); assay type: in vivo, human
Description: as §1

[6] = fasting plasma pinitol and chiro-inositol levels in NIDDM patients (Example 5); assay type: in vivo, human
Description: as §2, §3, §4, §5

[7] = system: plasma glucose; settings: stated as basis for use as control; cited from earlier work
[8] = system: plasma insulin; settings: stated as basis for use as control; cited from earlier work
[9] = before glucose, during pinitol treatment
[10] = compared to the pinitol-deficient diet

Row | SMILES | baseline glucose levels [1, 9] | reduction in plasma glucose area (mg/dl×minutes) during the glucose tolerance test ([1]; pinitol vs myo-inositol, five subjects, p=0.11) [%] | plasma D-chiro-inositol reached ([2]; human, 240 min) [µM] | Cmax at 3 h ([2]; human, po, 4.15 mg/kg/day) [µM] | time of peak plasma pinitol after oral administration ([2]; po) | Fasting plasma free fatty acids ([3]; pinitol 5 mg/kg BID (10 mg/kg/day) orally, twelve hours after last dose, Mean ± SD, placebo 648 ± 244, P 0.05) [µM] | reduction in mean fasting plasma free fatty acids ([3]; pinitol 5 mg/kg BID, vs placebo, p=0.05 by paired t-test) [%] | conversion to D-chiro-inositol on acid hydrolysis [4] | Insulin Area, Pinitol ([5]; 75 g glucose tolerance test, 3 hours, soy pinitol (total inositol 5 mg/kg/day orally), one value per subject (1-5)) | baseline insulin levels [5, 9] | reduction of insulin area during the glucose tolerance test ([5]; pinitol vs myo-inositol, five subjects, p=0.046) [%] | Insulin Area, Percent Change (Reduction) ([5]; pinitol vs myo-inositol, one value per subject (1-5)) | plasma chiro-inositol on pinitol feeding [6, 10] | plasma pinitol on pinitol feeding [6, 10] | concentration at 12 h ([6]; human, plasma, po, pinitol 5 mg/kg BID orally, 5 days, twelve hours after last dose, Mean ± SD, placebo 0.014 ± 0.012, P <0.0001) [nM] | effect on plasma glucose [7] | effect on plasma insulin [8] | Insulin Area, myo-Inositol ([5]; 75 g glucose tolerance test, 3 hours, myo-inositol 5 mg/kg/day (control), one value per subject (1-5))
1 | CO[C@H]1[C@H](O)[C@@H](O)[C@@H](O)[C@H](O)[C@@H]1O [Pinitol, 3-O-methyl-D-chiro-inositol] | unchanged | 18.8±9.1 | 1.7 | 5.4 | three | 569 ± 276 | 12.2 | quantitatively converted to D-chiro-inositol | 8844 μU/ml × minutes and 4032 μU/ml × minutes and 1518 μU/ml × minutes and 1566 μU/ml × minutes and 1197 μU/ml × minutes | unchanged | 25.2±8.9 | 51.1% and 12.3% and 32.6% and 30.6% and 0.5% | increased substantially | increased substantially | 488 ± 290 | – | – | –
2 | O[C@H]1[C@H](O)[C@@H](O)[C@H](O)[C@@H](O)[C@H]1O [myo-Inositol, myo-inositol, reference compound] | – | – | – | – | – | – | – | – | – | – | – | – | – | – | – | no definite effect | no definite effect | 18066 μU/ml × minutes and 4599 μU/ml × minutes and 2253 μU/ml × minutes and 2256 μU/ml × minutes and 1191 μU/ml × minutes
